SMILES strings stand for the structures. Structures can show the parent of a compound that is named as a salt. Where two headings read alike, the source gives them in different places.

The record followed here is patent US20220079993A1, “NON-NATURALLY OCCURRING THERMOGENIC ADIPOCYTES, METHODS OF MAKING, AND METHODS OF USE THEREOF” (University of Georgia Research Foundation, Inc., priority 2019, published 2022).

Common to all, as to format: cell-based, human
Test [1] deals with beige adipocytes. Nature of the test: High-throughput primary screen, lipolysis assay (glycerol release), 384-well. The conditions noted are these: 20 μM; for % Control (relative levels of glycerol release): 24 hours of drug treatment, vs untreated beige adipocytes; for Outcome in the primary screen (glycerol release), in words: 24 hours, cut-offs at 2-fold. As to the method:
ADSCs were seeded at 5000 cell/cm^2 in 12-well plates, grown for 5 days and then induced to differentiate into GC for 20 days. […] Cells were treated with forskolin (20 μM) for indicated time periods and supernatant samples were collected. Lipolysis assay was performed with free glycerol reagent (Sigma, F6428-40ML), according to manufacturer instructions.
ADSCs were plated in 384-well plates at a density of 5000 cell/cm2 and grown to confluency over ˜4 days. Cells were then differentiated to beige adipocytes using B-8 medium for 21 days. All cell culture and incubations in the 384-well format were done at 37° C. and 5% CO2. […] The use of FDA-approved drugs may allow for re-purposing for therapeutic use.
(§1) Lipolysis assays were performed after 24 hours of drug treatment by measuring free glycerol released in the 384-well format, using the procedure described above. Absorbance for each compound was normalized to untreated control samples for each plate and calculated as a percent of the control. Cut-offs for “activating” and “inhibiting” compounds were set at 2-fold. Validation assays were performed for select compounds at a range of concentration doses.

Test [2] concerns beige adipocytes. The experiment in a line: Lipolysis validation assays of primary hits at three concentrations. On the set-up: % of Control (1) / % of Control (2) / % of Control (3) / % of Control (4): unit of the concentration uncertain. The conditions noted are these: for activity at 2.2 µM: Conc. 2.2 µM; for activity at 6.7 µM: Conc. 6.7 µM; for activity at 20 µM: Conc. 20 µM; for activity at 2200 µM: Conc. 2.2 mM. As to the method:
ADSCs were seeded at 5000 cell/cm^2 in 12-well plates, grown for 5 days and then induced to differentiate into GC for 20 days. Prior to the assay, cells were washed in DPBS twice and then incubated with DMEM with 2% fatty-acid free BSA (Santa Crus, sc-500949) and Triascin C (5 μM). Cells were treated with forskolin (20 μM) for indicated time periods and supernatant samples were collected. Lipolysis assay was performed with free glycerol reagent (Sigma, F6428-40ML), according to manufacturer instructions.
as §1
Next, lipolysis assays were performed for all 111 compounds identified in the primary screen at three different concentrations, of which twenty-four were selected for further analysis based on their newness and/or reproducibility.

In test [3] the test system is UCP1. Nature of the test: Secondary screen, UCP1 transcript levels by qRT-PCR. The conditions noted are these: secondary screen of primary hits. An excerpt:
FIG. 8A is a scheme used for high-throughput screening (HTS). FIG. 8B is a scatter-plot of glycerol release for each compound assayed (n=3889) in an HTS screen. Data are shown as the percentage of glycerol released compared to untreated beige adipocytes (% of control). FIG. 8C is a computational analysis of preliminary hits identified in the HTS using BiNChE. FIG. 8D is a plot showing the results of a secondary hit validation of primary compounds performed by evaluating levels of UCP1 transcript by qRT-PCR. Unstimulated beige cells, selected adrenergic agonists, and potential new non-adrenergic beige fat activators identified in the primary screen are shown. Transcript levels were normalized to UCP1 levels in ADSCs, n=3 for each technical 20 replicate. *P<0.0.05, **P<0.01, ***P<0.005. FIGS. 8E and 8F are bar graphs showing secondary screening of known thermogenic activators. Transcript levels of UCP1 were assayed in unstimulated ADSCs and ADSC-derived beige adipocytes and following treatment with forskolin (FSK, 20 μM), isoproterenol (1, 10 μM) (8E) and Mirabegron (1, 10 and 25 μM) (8F). Transcript levels were determined by qRT-PCR. n=3 for each independent replicate. Data are mean+/−standard deviation. *P<0.0.05, **P<0.01.
Cells were washed with DPBS, lysed directly on the plate and used for RNA isolation with the E.Z.N.A Total RNA Kit (Omega, R6834-02) according to manufacturer instructions. RNA quantitation was performed with the Biotek Synergy 2 plate reader and cDNA was synthesized using 1 ug of RNA with the iScript cDNA Synthesis Kit (Bio-Rad, 1708841). The qRT-PCR was performed on a ViiA7 Real-Time PCR System (ThermoFisher) using a TaqMan Universal PCR Master Mix (ThermoFisher, 4324020) according to manufacturer instructions with the following TaqMan primer/probe sets (UCP1, Hs01084772_m1), DIO2, Hs00988260_ml, 18S rRNA, Hs03928985_g1). Each assay was performed in triplicate and normalized to 18S rRNA and graphed as mean+/−standard deviation.
To determine if hits identified in the first-round screen activated the thermogenic program, UCP1 transcript levels were used as a readout. This secondary screen incorporated adrenergic agonists, such as Mirabegron, isoproterenol and phenylephrine, and eighteen additional compounds with no reported function in thermogenic regulation (FIG. 8D, 8E, 8F). 18/25 (72%) of the lipolysis-activating compounds identified in the primary screen also activate the thermogenic program through UCP1. Twelve of these compounds have no reported adrenergic agonist activity and could potentially operate through different signaling mechanisms (FIG. 8D and Table 9).

Setting [4] is: Homo sapiens, Adipocyte, 24 h, read-out: % of Control (2).
Where [5] appears, read: Homo sapiens, Adipocyte, 24 h, read-out: % of Control (4).
Setting [6] is: Homo sapiens, Adipocyte, 24 h, read-out: % of Control (3).
Setting [7] is: Homo sapiens, Adipocyte, 24 h, read-out: % of Control (1).

In the case of `CC(C)NC[C@H](O)c1ccc(O)c(O)c1.O=C(O)C(O)C(O)C(=O)O` [R(+)-Isoproterenol (+)-bitartrate], the “% Control (relative levels of glycerol release)” value in test [1] came out at 363.04 % control.
`Nc1nc(CC(=O)Nc2ccc(CCNC[C@H](O)c3ccccc3)cc2)cs1` [Mirabegron]: in test [2] (setting [4]), the activity at 2.2 µM is 198%, the activity at 6.7 µM was 162% and the activity at 20 µM is 211%. For the same molecule, in test [2] (setting [5]), the activity at 2.2 µM is 131%, the activity at 6.7 µM came to 192% and the activity at 20 µM worked out at 201%. In addition, in test [2] (setting [6]), the activity at 6.7 µM is 168%, the activity at 20 µM stood at 65% and the activity at 2200 µM turned out to be 172%. Also, in test [2] (setting [7]), the activity at 20 µM was found to be 200% and the activity at 2200 µM worked out at 142%. Besides, in test [2] (Homo sapiens, Adipocyte, 24 h, Conc. 6.7 mM, read-out: % of Control (1)), the activity at 6700 µM was 203%. For the same molecule, in test [1], the “% Control (relative levels of glycerol release)” value turned out to be 211.65 % control and the “Outcome in the primary screen (glycerol release), in words” value was “efficacy in the HTS”.
Regarding `CNC(=O)c1ccc(C)c(-n2c(C)cc(OCc3ccc(F)cc3F)c(Br)c2=O)c1` [PH-797804], the “% Control (relative levels of glycerol release)” value in test [1] came to 38.23 % control.
Consider `Cc1cc(C)c(/C=C2\C(=O)Nc3ccccc32)[nH]1` [SU 5416], for which, in test [3], the “Activation of the thermogenic program (UCP1 transcript), in words” value (“Activation of the thermogenic program” below) is reported as “activators in both rounds of screening”. Moreover, the activity at 2.2 µM in test [2] (setting [4]) amounted to 379%; in test [2] (setting [5]) it was 232%. Besides, the activity at 6.7 µM turned out to be 349% in test [2] (setting [7]), 366% in test [2] (setting [4]), 251% in test [2] (setting [6]) and 238% in test [2] (setting [5]). For the same molecule, the activity at 20 µM came out at 283% in test [2] (setting [7]), 267% in test [2] (setting [4]), 233% in test [2] (setting [6]) and 246% in test [2] (setting [5]). In addition, the results for the activity at 2200 µM in test [2] (setting [7]) and in test [2] (setting [6]) were 281% and 214%, respectively.
In the case of `Oc1ccc(-c2nc(-c3ccc(F)cc3)c(-c3ccncc3)[nH]2)cc1` [SB202190 (FHPI)], the “% Control (relative levels of glycerol release)” value in test [1] was 34.88 % control.
Still for that read-out and setting: next, `CC(C)NCC(O)c1ccc(O)c(O)c1.Cl` (racemic) [(±)-Isoproterenol hydrochloride]: 389.02 % control.
For the molecule `Cc1ccc([N+](=O)[O-])cc1S(=O)(=O)N(C)/N=C/c1cnc2ccc(Br)cn12` [PIK-75], the “Activation of the thermogenic program” value in test [3] was “activators in both rounds of screening”. For the same molecule, in test [2] (Conc. 2.2 (unit uncertain)), the “% of Control (1)” value is 197.74 % of Control, the “% of Control (2)” value is listed as 134.71 % of Control, the “% of Control (3)” value was 183.08 % of Control and the “% of Control (4)” value is listed as 136.9 % of Control. In test [2] (Conc. 6.7 (unit uncertain)), the “% of Control (1)” value is on record as 280.95 % of Control, the “% of Control (2)” value is reported as 197.53 % of Control, the “% of Control (3)” value was 165.05 % of Control and the “% of Control (4)” value is on record as 207.93 % of Control. In addition, in test [2] (Conc. 20 (unit uncertain)), the “% of Control (1)” value was 158.45 % of Control, the “% of Control (2)” value is listed as 244.82 % of Control, the “% of Control (3)” value is reported as 198.79 % of Control and the “% of Control (4)” value was 233.79 % of Control.
For `COC1(C2=NCCN2)COc2ccccc2O1.Cl` (centres unmarked) [RX 821002 hydrochloride], the “% Control (relative levels of glycerol release)” value in test [1] is recorded as 30.77 % control.
Take `CC(C)NCC(O)c1ccc(O)c(O)c1` (centres unmarked) [Isoproterenol HCl]: in test [2] (setting [4]), the activity at 2.2 µM came to 272%, the activity at 6.7 µM was 294% and the activity at 20 µM was 268%. For the same molecule, in test [2] (setting [5]), the activity at 2.2 µM was 251%, the activity at 6.7 µM was found to be 236% and the activity at 20 µM amounted to 237%. In addition, in test [2] (setting [7]), the activity at 6.7 µM was 284%, the activity at 20 µM amounted to 289% and the activity at 2200 µM turned out to be 282%. In addition, in test [2] (setting [6]), the activity at 6.7 µM turned out to be 241%, the activity at 20 µM was 252% and the activity at 2200 µM worked out at 236%. Also, in test [1], the “Outcome in the primary screen (glycerol release), in words” value was “identified as primary hits”.
As for `CC(C)NC[C@@H](O)c1ccc(O)c(O)c1.O=C(O)C(O)C(O)C(=O)O` [S(−)-Isoproterenol (+)-bitartrate], in test [1], the “% Control (relative levels of glycerol release)” value worked out at 367.84 % control.
Regarding `COc1cc2c(cc1OC)-c1c/c(=N\c3c(C)cc(C)cc3C)n(C)c(=O)n1CC2` [Trequinsin HCl], in test [3], the “Activation of the thermogenic program” value was “efficacy in beige cell activation”. Moreover, the results for the activity at 2.2 µM in test [2] (setting [4]) and in test [2] (setting [5]) were 251% and 244%, respectively. For the same molecule, the activity at 6.7 µM is 271% in test [2] (setting [7]), 264% in test [2] (setting [4]), 232% in test [2] (setting [6]) and 215% in test [2] (setting [5]). Further, the activity at 20 µM in test [2] (setting [7]) was 284%; in test [2] (setting [4]), 292%; in test [2] (setting [6]) it was 256%; in test [2] (setting [5]), 248%. In addition, the activity at 2200 µM in test [2] (setting [7]) was 240%; in test [2] (setting [6]), 188%.
Consider `CC(C)(C)NCC(O)COc1cccc2c1CCC(=O)N2.Cl` (centres unmarked) [Carteolol HLC], for which the “% Control (relative levels of glycerol release)” value in test [1] is 32.31 % control.
As for `CC[C@@H]1C(=O)OC[C@@H]1Cc1cncn1C` [Pilocarpine nitrate], the “Activation of the thermogenic program” value in test [3] is “activators in both rounds of screening”. For the same molecule, the activity at 2.2 µM in test [2] (setting [4]) came to 135%; in test [2] (setting [5]), 89.8%. For the same molecule, the activity at 6.7 µM is 220% in test [2] (setting [7]), 260% in test [2] (setting [4]), 167% in test [2] (setting [6]) and 84.2% in test [2] (setting [5]). The activity at 20 µM in test [2] (setting [7]) came out at 200%; in test [2] (setting [4]), 290%; in test [2] (setting [6]) it was 230%; in test [2] (setting [5]), 181%. Also, the figures for the activity at 2200 µM in test [2] (setting [7]) and in test [2] (setting [6]) were 109% and 176%, respectively.
